Measured values taken from US20150305333A1, “USE OF GLUCOSAMINE AMIDES AS PLANT GROWTH AND YIELD ENHANCERS” (PIONEER HI-BRED INTERNATIONAL, INC., priority 2012, published 2015).

How the values were obtained:
Format in all cases: in vivo
canola seeds = assay: Petri dish seed germination assay, canola; conditions: Salt Stress (100 mM NaCl)
Experimental: A series of Petri dish seed assays was conducted to evaluate the effects NPG on the seed germination rates of corn, soybean, and canola seeds subjected to cold stress, salt stress and non-stressed conditions (salt stress only for canola). Assays were performed with ten replications of ten seeds/plate (100 total seeds). NPG was applied to seeds at the specified concentrations prior to being placed in Petri plates. Seeds designated for Salt Stress Experiments 1 & 2 were placed in Petri dishes containing a 100 mM NaCl solution and incubated at 21° C.-22° C. in the dark. Cold stress Petri dishes were incubated at 15° C. in the dark. Untreated Controls were incubated at 21° C.-22° C. in the dark as were seeds utilized in the separately conducted non-stressed germination assays. Data was recorded as percent germination at designated times after plating. Statistical analyses were performed using one-way Anova and Kruskal-Wallis one-way analysis of variance on rank combined with Dunn's all pairwise multiple comparison procedure (α=0.05).

[1] = tested on: Shepody potatoes (Solanum tuberosum); assay: Potato field trial 2010: emergence, flowering, marketable yield; conditions: for Marketable Potato Yield for One Row of Plot: one 8 m row, fresh weight
Experimental: A potato field trial was conducted to evaluate the effects of NPG on plant emergence, flowering and yield in Shepody potatoes (Solanum tuberosum) planted near Thorndale, Ontario, Canada, in 2010. Seed treatments included an Untreated Control, three concentrations of NPG and three concentrations of an LCO derived from Bradyrhizobium japonicum to serve as a positive control. The LCO was provided by Dr. Don Smith (McGill University, Montreal, Canada) using the basic method described in Soulemanov, A., et al., in Microbiol. Res., 157: 25-28 (2005). Aqueous solutions of NPG and LCO were applied at 10^−6M, 10^−7M and 10^−8M to seed pieces using a spray nozzle and left to soak on a plastic sheet for 20 minutes. The seed pieces were beginning to sprout when planted on June 8th in a loam composed of 41% sand, 39% silt and 20% clay and 4.5% organic matter.
Potatoes were planted at a rate of 33,300 seed pieces/ha to a depth of 20 cm and hilled using a tractor mounted potato hiller. Weeds were controlled using three L/ha of 40.6 wt % linuron. Insects were controlled using 250 ml/ha 18.4 wt % chlorantraniprole, and disease was controlled using a tank mix of 1.6 kg/ha 75 wt % mancozeb and 225 g/ha 60 wt % cymoxanil fungicides. Before harvest, plants were sprayed twice (seven days apart) with 39.5 wt % diquat dibromide herbicide at a rate of 2 L/ha. All of the products used are industry standards and representative of what is used in commercial production.
The trial was conducted using a randomized complete block design with a plot size of 2 m by 8 m with a 100 cm row spacing, 30 cm plant spacing and four replications Due to wet weather, the soil was damp and cloddy during the planting and hilling process.
Marketable potato yield was determined by harvesting one entire 8 m row of the plot (Table 3). The Untreated Control row with the highest emergence was harvested. Yields were not corrected for differences in emergence rates. The 10^−6 M and 10^−7 M NPG treatments and the 10^−8 M LCO treatment provided a statistically significant increase in marketable fresh weight yield compared to the Untreated Control.

[2] = tested on: AC Metcalf spring barley (Hordeum vulgare); assay: Spring barley field trial 2011: emergence, vigor, tillering; conditions: for Barley Crop Vigor (1-5 scale): vigor scale of Example 3; for Barley Plant Tillers: 24 DAP
Experimental: A spring barley field trial was conducted to evaluate the effects of NPG on plant emergence and vigor in AC Metcalf spring barley (Hordeum vulgare) planted near Wetaskiwin, Alberta, Canada, in 2011. Seed treatments included an Untreated Control, 10^−7 M NPG seed coating, 10^−7 M NPG seed coating followed by an NPG foliar treatment (10^−7 M NPG+Foliar), 10^−6 M natural LCO, and 10^−6 M commercial LCO plus a commercial rhizobia inoculant (LCO+RI) applied as a seed coating. The natural LCO was provided by Dr. Don Smith (McGill University, Montreal, Canada) and prepared as described in Example 2.
Seed coating was performed by injecting 7 mL of aqueous NPG solution per 100 g barley seed into the coating machine followed by treatment and drying. […] Foliar NPG was applied 47 days after planting. Plants were sprayed using a four-nozzle hollow-cone boom and CO2 propellant at a speed of 10.8 km/h and 40 psi, with a mix size of 1.0 L and spray rate of 110 L/ha water volume. Seeds designated for use as the Untreated Control also received the fungicide maintenance treatment.
Treated seeds were sent to the DuPont Wetaskiwin, Alberta, Canada, Research Station and planted on May 19th in a loam composed of 29% sand, 46% silt and 25% clay and 4.8% organic matter. […] Barley was planted at a rate of 100 kg seeds/ha to a depth of 2.5 cm. Weeds were controlled using 60 grams ai/ha pinoxaden, 30 grams/ha thifensulfuron methyl, and 280 grams ai/ha 4-chloro-2-methylphenox acetic acid, 2-ethylhexyl ester. Adigor surfactant was used at a rate of 700 ml/hectare. All of the products used are considered industry standards and representative of what is used in commercial production.
The trial was conducted using a randomized complete block design with a plot size of 2 m by 6 m with 22.9 cm row spacing, 3.3 cm plant spacing and four replications. Height and yield data was not collected in this trial due to a large hailstorm on Jul. 18, 2011.
Crop vigor was observed 11 and 14 days DAP using the vigor scale described in Example 3 (Table 12).

[3] = 10^−7M seed coating + Foliar, 11 DAP
[4] = 10^−7M seed coating + Foliar, 14 DAP

CCCCCCC=CCCCCCCCC(=O)NC1C(OC)OC(CO)C(O)C1O [NPG, Methyl 2-deoxy-2-N-(hexadece-9,10-cis-eneoyl)-β-D-glucopyranoside]
Canola Seed Germination (canola seeds; 10^−6M, 30 HAP): 14b %
Canola Seed Germination (canola seeds; 10^−6M, 39 HAP): 67.3ab %
Canola Seed Germination (canola seeds; 10^−6M, 48 HAP): 84a %
Canola Seed Germination (canola seeds; 10^−7M, 30 HAP): 22.7ab %
Canola Seed Germination (canola seeds; 10^−7M, 39 HAP): 80.7a %
Canola Seed Germination (canola seeds; 10^−7M, 48 HAP): 88.7a %
Potato Emergence ([1]; 10^−6M seed piece treatment, 15 DAP): 16b %
Potato Emergence ([1]; 10^−6M seed piece treatment, 17 DAP): 41b %
Potato Emergence ([1]; 10^−6M seed piece treatment, 21 DAP): 68c %
Potato Emergence ([1]; 10^−6M seed piece treatment, 29 DAP): 72c %
Potato Flowering ([1]; 10^−6M seed piece treatment, 42 DAP): 19a %
Potato Flowering ([1]; 10^−6M seed piece treatment, 50 DAP): 53ab %
Marketable Potato Yield for One Row of Plot ([1]; 10^−6M seed piece treatment): 17.92b Kg/Plot
Potato Emergence ([1]; 10^−7M seed piece treatment, 15 DAP): 9ab %
Potato Emergence ([1]; 10^−7M seed piece treatment, 17 DAP): 30ab %
Potato Emergence ([1]; 10^−7M seed piece treatment, 21 DAP): 48b %
Potato Emergence ([1]; 10^−7M seed piece treatment, 29 DAP): 52b %
Potato Flowering ([1]; 10^−7M seed piece treatment, 42 DAP): 20a %
Potato Flowering ([1]; 10^−7M seed piece treatment, 50 DAP): 47ab %
Marketable Potato Yield for One Row of Plot ([1]; 10^−7M seed piece treatment): 16.05b Kg/Plot
Potato Emergence ([1]; 10^−8M seed piece treatment, 15 DAP): 13ab %
Potato Emergence ([1]; 10^−8M seed piece treatment, 17 DAP): 30ab %
Potato Emergence ([1]; 10^−8M seed piece treatment, 21 DAP): 45b %
Potato Emergence ([1]; 10^−8M seed piece treatment, 29 DAP): 55b %
Potato Flowering ([1]; 10^−8M seed piece treatment, 42 DAP): 11a %
Potato Flowering ([1]; 10^−8M seed piece treatment, 50 DAP): 54ab %
Marketable Potato Yield for One Row of Plot ([1]; 10^−8M seed piece treatment): 13.80ab Kg/Plot
Barley Crop Emergence [2, 3]: 25a plants/m row
Barley Crop Vigor (1-5 scale) [2, 3]: 3a
Barley Crop Emergence [2, 4]: 31.8a plants/m row
Barley Crop Vigor (1-5 scale) [2, 4]: 4a
Barley Plant Tillers ([2]; 10^−7M seed coating + Foliar): 95a %
Barley Crop Emergence ([2]; 10^−7M seed coating, 11 DAP): 22.5a plants/m row
Barley Crop Vigor (1-5 scale) ([2]; 10^−7M seed coating, 11 DAP): 3a
Barley Crop Emergence ([2]; 10^−7M seed coating, 14 DAP): 27.4a plants/m row
Barley Crop Vigor (1-5 scale) ([2]; 10^−7M seed coating, 14 DAP): 4a
Barley Plant Tillers ([2]; 10^−7M seed coating): 83a %
